According to ChEMBL document CHEMBL3217734, “Sulfonyl-hydrazones of cyclic imides derivatives as potent inhibitors of the Mycobacterium tuberculosis protein tyrosine phosphatase B (PtpB)” (Medchemcomm, 2011):
Active and inactive are the calls of the source. The calls are words filed in the database; no cut-off is given here.

Assays:
[1] = molecular target: T1, Tyrosine-protein phosphatase non-receptor type 1 (Homo sapiens, UniProt P18031); assay: Inhibition of PTP1B (unknown origin) using p-nitrophenylphosphate as substrate measured for 10 mins by ELISA plate spectrophotometric analysis
T1 sequence (P18031 whole entry): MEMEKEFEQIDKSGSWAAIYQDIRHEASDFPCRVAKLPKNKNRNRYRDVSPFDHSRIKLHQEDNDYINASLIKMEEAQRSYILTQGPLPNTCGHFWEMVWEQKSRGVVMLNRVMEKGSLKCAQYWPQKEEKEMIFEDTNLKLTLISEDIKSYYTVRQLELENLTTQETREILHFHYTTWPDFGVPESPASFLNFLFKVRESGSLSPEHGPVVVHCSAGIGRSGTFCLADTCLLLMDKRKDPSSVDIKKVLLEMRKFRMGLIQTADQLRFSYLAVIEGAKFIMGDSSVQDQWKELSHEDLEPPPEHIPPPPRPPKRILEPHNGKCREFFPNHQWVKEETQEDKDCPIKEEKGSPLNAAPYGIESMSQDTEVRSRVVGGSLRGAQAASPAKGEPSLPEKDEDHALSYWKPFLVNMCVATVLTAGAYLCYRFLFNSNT

[2] = system: Mycobacterium tuberculosis; assay: Inhibition of N-terminal hexahistidine-tagged recombinant Mycobacterium tuberculosis PtpB expressed in Escherichia coli BL21(DE3) using p-nitrophenylphosphate as substrate at 25 uM measured for 10 mins by ELISA plate spectrophotometric analysis relative to control
[3] = Inhibition of N-terminal hexahistidine-tagged recombinant Mycobacterium tuberculosis PtpB expressed in Escherichia coli BL21(DE3) using p-nitrophenylphosphate as substrate measured for 10 mins by ELISA plate spectrophotometric analysis
[4] = Competitive inhibition of N-terminal hexahistidine-tagged recombinant Mycobacterium tuberculosis PtpB expressed in Escherichia coli BL21(DE3) using p-nitrophenylphosphate as substrate measured for 10 mins by Lineweaver-Burk plot analysis

SMILES	IC50 [1]	inhibition [2]	IC50 [3]	Ki [4]
O=C1C2C3C=CC(O3)C2C(=O)N1c1ccc(S(=O)(=O)N/N=C/c2ccc([N+](=O)[O-])cc2)cc1 (stereo not drawn)	245 µM	57%	41 µM	15 µM
CC12C=CC(O1)C1C(=O)N(c3ccc(S(=O)(=O)N/N=C/c4ccc([N+](=O)[O-])cc4)cc3)C(=O)C12 (stereo not drawn)	–	32%	–	–
O=C1c2cccc3cccc(c23)C(=O)N1Cc1ccc(S(=O)(=O)N2CCOCC2)cc1	–	inactive	–	–
O=C1C2C3C=CC(O3)C2C(=O)N1c1ccc(S(=O)(=O)N2CCCC2)cc1 (stereo not drawn)	–	inactive	–	–
Cc1ccc(/C=N/NS(=O)(=O)c2ccc(N3C(=O)C4C5C=CC(C)(O5)C4C3=O)cc2)cc1 (stereo not drawn)	–	26%	–	–
CC12C=CC(O1)C1C(=O)N(c3ccc(S(=O)(=O)N/N=C/c4ccccc4)cc3)C(=O)C12 (stereo not drawn)	7 µM	59%	18 µM	7 µM
CC12C=CC(O1)C1C(=O)N(c3ccc(S(=O)(=O)N4CCCC4)cc3)C(=O)C12 (stereo not drawn)	–	inactive	–	–
O=C1C=CC(=O)N1c1ccccc1	–	27%	–	–
CC12C=CC(O1)[C@@H]1C(=O)N(c3ccc(S(=O)(=O)N/N=C/c4ccc(Br)cc4)cc3)C(=O)[C@@H]12 (stereo partly drawn)	88 µM	59%	39 µM	9 µM
CC12C=CC(O1)C1C(=O)N(c3ccc(S(=O)(=O)N/N=C/c4ccc(Cl)c(Cl)c4)cc3)C(=O)C12 (stereo not drawn)	–	34%	–	–
O=C1c2cccc3cccc(c23)C(=O)N1Cc1ccc(S(=O)(=O)N2CCCC2)cc1	–	inactive	–	–
CC12C=CC(O1)C1C(=O)N(c3ccc(S(=O)(=O)N/N=C/c4ccc(Cl)cc4)cc3)C(=O)C12 (stereo not drawn)	41 µM	59%	21 µM	2.5 µM
CC12C=CC(O1)C1C(=O)N(c3ccc(S(=O)(=O)N4CCOCC4)cc3)C(=O)C12 (stereo not drawn)	–	inactive	–	–
O=C1C=CC(=O)N1c1ccc(S(=O)(=O)Cl)cc1	–	14%	–	–
COc1ccc(/C=N/NS(=O)(=O)c2ccc(N3C(=O)C4C5C=CC(C)(O5)C4C3=O)cc2)cc1 (stereo not drawn)	–	inactive	–	–
O=C1c2cccc3c(Cl)ccc(c23)C(=O)N1Cc1ccc(S(=O)(=O)N2CCOCC2)cc1	–	inactive	–	–
